According to US12162858B2, “Quinoline derivatives as inhibitors of AXL/MER RTK and CSF1R” (QURIENT CO., LTD., priority 2018, dated 2024):
Like-named read-outs stand apart in the source and are kept apart here.

Legend:
[1] = molecular target: CSF1R (Homo sapiens, UniProt P07333); test: KINOMEscan competition binding assay for CSF1R; set-up: DNA tag for qPCR (not a peptide); host or cells: E. coli/T7 phage or HEK-293
In short: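 Values are either % inhibition at 0.1 uM, relative to DMSO (100% Ctrl) and a control compound (0% Ctrl), or Kd from an 11-point 3-fold series fitted with Hill slope −1. DNA-tagged kinase binds immobilized ligand beads with compound for 1 h at room temperature, and eluted kinase is measured by qPCR.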

[2] = molecular target: T1, Mer (Homo sapiens, UniProt Q12866); test: LanthaScreen Eu kinase binding assay for Mer; details: read-out: Mer kinase binding activity (Kd)
T1 construct: purchased Life Technologies
T1 sequence (Q12866 21-999): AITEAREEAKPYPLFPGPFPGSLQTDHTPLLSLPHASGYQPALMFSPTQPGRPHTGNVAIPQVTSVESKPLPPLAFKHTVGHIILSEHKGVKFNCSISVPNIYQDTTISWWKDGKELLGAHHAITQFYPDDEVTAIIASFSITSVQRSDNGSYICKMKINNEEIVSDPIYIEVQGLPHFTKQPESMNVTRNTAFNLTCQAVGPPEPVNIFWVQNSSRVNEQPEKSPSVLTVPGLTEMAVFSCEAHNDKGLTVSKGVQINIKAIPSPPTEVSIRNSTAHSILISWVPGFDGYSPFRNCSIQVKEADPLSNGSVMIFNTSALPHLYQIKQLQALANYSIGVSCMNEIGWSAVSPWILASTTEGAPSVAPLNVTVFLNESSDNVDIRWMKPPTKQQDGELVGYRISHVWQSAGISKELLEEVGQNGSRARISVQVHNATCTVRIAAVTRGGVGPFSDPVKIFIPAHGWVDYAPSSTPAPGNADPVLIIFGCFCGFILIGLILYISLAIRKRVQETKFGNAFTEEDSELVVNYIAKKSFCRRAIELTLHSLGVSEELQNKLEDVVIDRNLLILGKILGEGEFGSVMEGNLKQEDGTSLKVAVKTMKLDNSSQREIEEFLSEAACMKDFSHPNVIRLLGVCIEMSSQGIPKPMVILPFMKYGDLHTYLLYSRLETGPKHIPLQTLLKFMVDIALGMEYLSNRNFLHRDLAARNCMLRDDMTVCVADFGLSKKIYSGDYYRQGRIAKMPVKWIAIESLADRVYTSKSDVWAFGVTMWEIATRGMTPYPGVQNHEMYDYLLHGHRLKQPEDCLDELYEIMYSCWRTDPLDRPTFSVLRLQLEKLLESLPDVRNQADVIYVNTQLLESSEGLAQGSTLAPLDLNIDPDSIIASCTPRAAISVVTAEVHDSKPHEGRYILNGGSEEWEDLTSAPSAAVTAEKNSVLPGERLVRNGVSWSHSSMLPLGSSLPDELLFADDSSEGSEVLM
In short: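 Competitive displacement of Alexa Fluor 647-labeled Tracer 236 from the kinase, with binding detected by TR-FRET with a Eu-labeled anti-GST antibody. Compounds were run as 8-step DMSO serial dilutions and incubated 1 h at room temperature. Kd was calculated relative to DMSO vehicle control wells.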

CSF1R, sequence (P07333 20-972): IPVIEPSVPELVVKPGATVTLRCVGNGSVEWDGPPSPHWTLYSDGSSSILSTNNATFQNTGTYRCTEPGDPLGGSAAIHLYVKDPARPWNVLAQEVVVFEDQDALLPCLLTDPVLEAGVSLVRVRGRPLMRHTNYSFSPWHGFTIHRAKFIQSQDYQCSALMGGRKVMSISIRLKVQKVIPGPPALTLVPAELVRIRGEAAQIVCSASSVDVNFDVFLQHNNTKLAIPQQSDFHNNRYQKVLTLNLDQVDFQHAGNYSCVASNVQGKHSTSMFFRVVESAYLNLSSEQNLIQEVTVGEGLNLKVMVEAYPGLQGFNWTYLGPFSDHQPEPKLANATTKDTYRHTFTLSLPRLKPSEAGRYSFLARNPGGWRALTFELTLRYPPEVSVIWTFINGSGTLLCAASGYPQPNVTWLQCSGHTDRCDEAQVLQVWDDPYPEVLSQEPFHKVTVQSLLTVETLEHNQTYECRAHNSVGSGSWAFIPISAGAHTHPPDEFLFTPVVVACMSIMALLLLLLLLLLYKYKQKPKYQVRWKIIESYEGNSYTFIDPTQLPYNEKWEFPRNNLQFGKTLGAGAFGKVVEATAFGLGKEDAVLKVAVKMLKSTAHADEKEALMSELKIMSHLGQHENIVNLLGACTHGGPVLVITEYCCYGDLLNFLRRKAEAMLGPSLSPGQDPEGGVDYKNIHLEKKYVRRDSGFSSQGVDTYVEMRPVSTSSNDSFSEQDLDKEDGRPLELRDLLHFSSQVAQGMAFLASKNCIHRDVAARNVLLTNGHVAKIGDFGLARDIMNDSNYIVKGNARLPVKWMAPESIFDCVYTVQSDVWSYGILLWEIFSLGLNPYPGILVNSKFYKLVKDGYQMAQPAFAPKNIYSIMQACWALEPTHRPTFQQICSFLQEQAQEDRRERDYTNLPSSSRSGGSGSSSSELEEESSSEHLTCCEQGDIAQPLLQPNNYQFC

inhibition at 0.1 µM ([1]; read-out: CSF1R kinase binding activity, Percent (%) inhibition): 98% | inhibition at 0.1 µM ([1]; read-out: CSF1R kinase binding activity, Range): ≥ 80% | Kd ([1]; read-out: CSF1R kinase binding activity (Kd)): < 100 nM | Kd [2]: < 100 nM
Structure (SMILES): CCCn1cc(OCCF)c(C(=O)Nc2ccc(Oc3ccnc4cc(OC)c(OC)cc34)cn2)n1 [Compound 14]
